Results on three compounds are retold here after the NIST ThermoML archive (doi:10.1016/j.jct.2016.05.008).

The conditions of series [1]: Crystal; DTA.
The nature of series [2]: Molar enthalpy of transition or fusion. The settings on record: Crystal; DSC.

± gives the expanded uncertainty stated by the source.

Consider `CCCCCCCCCCCCCCCCCC` [octadecane], for which the Normal melting temperature in series [1] came to 27.80 ± 0.53 °C. Further, in series [2], the “Molar enthalpy of transition or fusion” value stood at 14.7 ± 0.645 kcal/mol.

For `CCCCCCCCCCCCCC(=O)O` [tetradecanoic acid], the Normal melting temperature in series [1] stood at 54.00 ± 0.53 °C. For the same compound, the “Molar enthalpy of transition or fusion” value in series [2] is 10.7 ± 0.478 kcal/mol.

For the compound `CCCCCCCCCCCCCCCC(=O)O` [hexadecanoic acid], the Normal melting temperature in series [1] turned out to be 62.00 ± 0.53 °C. Moreover, in series [2], the “Molar enthalpy of transition or fusion” value came out at 12.6 ± 0.55 kcal/mol.
